Converted amounts (≈) assume the structure as drawn. The source made the active and inactive calls. The calls are words filed in the database; no cut-off is given here.
Assays:
HCT-116 [1] = assay: Cell cycle arrest in human HCT116 cells assessed as accumulation at G2/M phase at IC50 after 24 hrs irradiated with tungsten-halogen white light for 2 hrs followed by incubation in drug free medium for 24 hrs by flow cytometry; format: functional
HCT-116 [2] = assay: Induction of apoptosis in human HCT116 cells assessed as decrease in Bcl2 protein expression at IC50 after 24 hrs irradiated with tungsten-halogen white light for 2 hrs followed by incubation in drug free medium for 24 hrs […]; format: functional, cell-based
HCT-116 [3] = assay: Induction of NO radical generation in human HCT116 cells at IC50 after 24 hrs irradiated with tungsten-halogen white light for 2 hrs followed by incubation in drug free medium for 24 hrs; format: functional, cell-based
HCT-116 [4] = assay: Cell cycle arrest in human HCT116 cells assessed as accumulation at G1 phase at IC50 after 24 hrs irradiated with tungsten-halogen white light for 2 hrs followed by incubation in drug free medium for 24 hrs by flow cytometry; format: functional
HCT-116 [5] = assay: Phototoxicity against human HCT116 cells […] after 24 hrs irradiated with tungsten-halogen white light for 2 hrs followed by incubation in drug free medium for 24 hrs by MTT assay in presence of nitric oxide synthase inhibitor L-NMMA; format: functional, cell-based; conditions: HCT-116, light or radiation study
HCT-116 [6] = assay: Phototoxicity against human HCT116 cells […] after 24 hrs irradiated with LED red light for 2 hrs followed by incubation in drug free medium for 24 hrs by MTT assay; format: functional, cell-based; conditions: HCT-116, light or radiation study
HCT-116 [7] = assay: Phototoxicity against human HCT116 cells […] after 24 hrs irradiated with tungsten-halogen white light for 2 hrs followed by incubation in drug free medium for 24 hrs by MTT assay; format: functional, cell-based; conditions: HCT-116, light or radiation study
HCT-116 [8] = assay: Induction of apoptosis in human HCT116 cells at IC50 after 24 hrs irradiated with tungsten-halogen white light for 2 hrs followed by incubation in drug free medium for 24 hrs using annexin V-FITC staining by FACS; format: functional, cell-based
HCT-116 [9] = assay: Induction of ROS generation in human HCT116 cells at IC50 after 24 hrs irradiated with tungsten-halogen white light for 2 hrs followed by incubation in drug free medium for 24 hrs by flow cytometry; format: functional, cell-based
HCT-116 [10] = assay: Induction of apoptosis in human HCT116 cells assessed as increase in Bax protein expression at IC50 after 24 hrs irradiated with tungsten-halogen white light for 2 hrs followed by incubation in drug free medium for 24 hrs […]; format: functional, cell-based
HCT-116 [11] = assay: Induction of apoptosis in human HCT116 cells assessed as decrease in survivin protein expression at IC50 after 24 hrs irradiated with tungsten-halogen white light for 2 hrs followed by incubation in drug free medium for 24 hrs […]; format: functional, cell-based
HCT-116 [12] = assay: Cell cycle arrest in human HCT116 cells assessed as accumulation at S phase at IC50 after 24 hrs irradiated with tungsten-halogen white light for 2 hrs followed by incubation in drug free medium for 24 hrs by flow cytometry; format: functional

SMILES	Activity (HCT-116 [1])	Activity (HCT-116 [2])	Activity (HCT-116 [3])	Activity (HCT-116 [4])	IC50 (HCT-116 [5])	IC50 (HCT-116 [6])	IC50 (HCT-116 [7])	Activity (HCT-116 [8])	Activity (HCT-116 [9])	Activity (HCT-116 [10])	Activity (HCT-116 [11])	Activity (HCT-116 [12])
Oc1cccc(-c2c3nc(cc4ccc([nH]4)c(-c4ccccc4)c4nc(cc5ccc2[nH]5)C=C4)C=C3)c1	29.69%	Active	Active	49.03%	0.482 ng/mL	3.96 nM	0.683 ng/mL (≈ 1.43 nM)	Active	Active	Active	Active	21.28%
Oc1cccc(-c2c3nc(c(-c4cccc(O)c4)c4ccc([nH]4)c(-c4cccc(O)c4)c4nc(c(-c5cccc(O)c5)c5ccc2[nH]5)CC4)C=C3)c1 [TEMOPORFIN]	27.17%	Active	–	51.53%	–	41 nM	–	Active	–	Active	Active	21.29%
C1=Cc2nc1cc1ccc([nH]1)c(-c1ccccc1)c1nc(cc3ccc([nH]3)c2-c2ccccc2)C=C1	29.27%	Active	–	52.83%	–	–	–	Active	–	Active	Active	17.89%
Oc1cccc(-c2c3nc(cc4ccc([nH]4)c(-c4ccccc4)c4nc(cc5ccc2[nH]5)C=C4)CC3)c1	–	–	–	–	–	1.32 nM	–	–	–	–	–	–
COc1cccc(-c2c3nc(cc4ccc([nH]4)c(-c4ccccc4)c4nc(cc5ccc2[nH]5)C=C4)C=C3)c1	29.6%	Active	–	52.4%	–	–	–	Active	–	Active	Active	17.93%

Reference: ChEMBL document CHEMBL1152756, “Photodynamic effects of novel 5,15-diaryl-tetrapyrrole derivatives on human colon carcinoma cells” (Bioorg Med Chem, 2009)
